Structures can show the parent of a compound that is named as a salt.
How the values were obtained:
HCT116 [1] = assay: AC50 cell viability (CellTiter-Glo); higher = less potent; details: 48 h
HCT116 [2] = assay: efficacy (fitted maximal change in viability relative to DMSO control); higher = less cytotoxic (negative = loss of viability); details: 48 h
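Wherever AC50 cell viability (CellTiter-Glo) is given: HCT116 colorectal carcinoma cells screened at five concentrations per compound, luminescent viability scaled between DMSO wells and empty wells on each plate, curves fitted per compound.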
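Wherever efficacy (fitted maximal change in viability relative to DMSO control) is given: Luminescence-based viability readout, five doses per compound, normalized against on-plate DMSO and empty-well controls, followed by dose-response curve fitting for every drug.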

## C=C1/C(=C/C=C2\CCCC3(C)[C@@H]([C@H](C)/C=C/C=C/C(O)(CC)CC)CC[C@@H]23)C[C@@H](O)C[C@@H]1O (some centres not stated) [Seocalcitol]
HCT116 [1]
  AC50 cell viability: 18.6 µM
HCT116 [2]
  efficacy: -31.2%

## COc1c(C)c2c(c(O)c1C/C=C(\C)CCC(=O)OCCN1CCOCC1)C(=O)OC2 [Mycophenolate mofetil]
HCT116 [1]
  AC50 cell viability: 2.63 µM
HCT116 [2]
  efficacy: -80.7%

## CNC(=O)Nc1ccc(-c2nc(N3CC4CCC(C3)O4)c3cnn(C4CCC5(CC4)OCCO5)c3n2)cc1
HCT116 [1]
  AC50 cell viability: 1.18 µM
HCT116 [2]
  efficacy: -96.3%

## CCn1cc(-c2ccnc3[nH]c(-c4cccc(CN(C)C)c4)cc23)c(-c2ccc(NC(=O)N(C)C)cc2)n1
HCT116 [1]
  AC50 cell viability: 5.25 µM
HCT116 [2]
  efficacy: -101%

## CNC(=O)Cn1cc(-c2ccc3c(c2)C(F)CC32NC(=O)N(CC(=O)N(Cc3ccc(F)cc3)[C@@H](C)C(F)(F)F)C2=O)cn1 (some centres not stated)
HCT116 [1]
  AC50 cell viability: 0.742 µM
HCT116 [2]
  efficacy: -47.8%

## CCOc1cc(N2CCC(O)CC2)ccc1Nc1ncc2c(n1)N(C)c1ccccc1C(=O)N2C [XMD8-92]
HCT116 [1]
  AC50 cell viability: 8.33 µM
HCT116 [2]
  efficacy: -80.7%

## C[C@H](NC(=O)C(=O)Nc1ccccc1C(C)(C)C)C(=O)N[C@@H](CC(=O)O)C(=O)COc1c(F)c(F)cc(F)c1F [Emricasan]
HCT116 [1]
  AC50 cell viability: 13.2 µM
HCT116 [2]
  efficacy: -89.4%

## O=C\1NC(=O)\C(=C1C2=C[NH]C3=C2C=CC=C3)C4=C[NH]C5=C4C=CC=C5 [Bisindolylmaleimide]
HCT116 [1]
  AC50 cell viability: 18.6 µM
HCT116 [2]
  efficacy: -85.7%

## Nc1nc(N)c2nc(-c3cccc(Cl)c3)c(N)nc2n1 [Epiblastin A]
HCT116 [1]
  AC50 cell viability: 1.66 µM
HCT116 [2]
  efficacy: -85%

## OC(=O)C1=CC=C(NC2=NC3=C(C\N=C(/C4=CC(=CC=C34)Cl)C5=C(F)C=CC=C5F)C=N2)C=C1 [MLN-8054]
HCT116 [1]
  AC50 cell viability: 0.332 µM
HCT116 [2]
  efficacy: -38.3%

## NC(=O)c1cccc2cn(-c3ccc([C@@H]4CCCNC4)cc3)nc12 [Niraparib]
HCT116 [1]
  AC50 cell viability: 18.6 µM
HCT116 [2]
  efficacy: -92%

## COC1=CC(c2cc3ccccc3[nH]2)=N/C1=C/c1[nH]c(C)cc1C [Obatoclax]
HCT116 [1]
  AC50 cell viability: 1.66 µM
HCT116 [2]
  efficacy: -90%

## C[C@H](NC(=O)C1=C2N=CC=C[N]2N=C1N)\C3=C\C4=CC=CC(=C4C(=O)N3C5=CC=CC=C5)C#CC6=C[N](C)N=C6 [IPI-549]
HCT116 [1]
  AC50 cell viability: 8.11 µM
HCT116 [2]
  efficacy: -43.1%

## FC1=CC2=C3[N](CCN(CC3=C1)C(=O)N4CCCCC4)C=C2C/5=C(C(=O)NC5=O)\C6=CN=C7C=CC=C[N]67
HCT116 [1]
  AC50 cell viability: 11.8 µM
HCT116 [2]
  efficacy: -108%

## CCC[C@H](NC(=O)/C(C#N)=C/c1cccc(Br)n1)c1ccccc1 [Degrasyn]
HCT116 [1]
  AC50 cell viability: 26.3 µM
HCT116 [2]
  efficacy: -104%

## COc1c(C)c2c(c(O)c1C/C=C(\C)CCC(=O)O)C(=O)OC2 [Mycophenolic acid]
HCT116 [1]
  AC50 cell viability: 2.09 µM
HCT116 [2]
  efficacy: -82%

## CSc1ccc(C(=O)/C=C/c2cc(C)c(OC(C)(C)C(=O)O)c(C)c2)cc1 [Elafibranor]
HCT116 [1]
  AC50 cell viability: 30.3 µM
HCT116 [2]
  efficacy: -75.5%

## CN1CCN(c2cc(C(=O)Nc3ccc4c(c3)-c3c(c(C(N)=O)nn3-c3ccc(F)cc3)CC4)c(Cl)cn2)CC1 [PHA-408]
HCT116 [1]
  AC50 cell viability: 20.9 µM
HCT116 [2]
  efficacy: -98.2%

## O=C(Nc1cccc(C(F)(F)F)c1)Nc1cc([S+](=O)([O-])NC2CC2)ccc1-c1ccsc1 [AGI-6780]
HCT116 [1]
  AC50 cell viability: 26.3 µM
HCT116 [2]
  efficacy: -99.4%

## CNCCCC12CCC(c3ccccc31)c1ccccc12 [Maprotiline hydrochloride]
HCT116 [1]
  AC50 cell viability: 20.9 µM
HCT116 [2]
  efficacy: -93.9%

## CCOC(=O)\C1=C(/C)N\C2=C(C1C3=CC=C(C=C3)C4=CC=CC=C4)\C(=O)CC(C)(C)C2 (configuration not stated) [ITD-1]
HCT116 [1]
  AC50 cell viability: 18.6 µM
HCT116 [2]
  efficacy: -67.8%

## C[S+](=O)([O-])c1ccc(-c2nnc(/C=C/c3nnc(-c4ccc(C#N)cc4)o3)n2-c2ccccc2Cl)nc1 [G-007-LK]
HCT116 [1]
  AC50 cell viability: 14.8 µM
HCT116 [2]
  efficacy: -48.4%

## CC(C)(C)OC(=O)CN(Cc1ccc(Cl)cc1)Cc1ccc([N+](=O)[O-])s1 [GSK-4112]
HCT116 [1]
  AC50 cell viability: 20.9 µM
HCT116 [2]
  efficacy: -40.6%

## Cc1ccc(NC(=O)c2ccc(CN3CCN(C)CC3)cc2)cc1Nc1nc(-c2cccnc2)cs1 [Masitinib]
HCT116 [1]
  AC50 cell viability: 18.6 µM
HCT116 [2]
  efficacy: -99.1%

## COc1cc(OC)c(/C=C/[S+](=O)([O-])Cc2ccc(OC)c(NCC(=O)[O-])c2)c(OC)c1
HCT116 [1]
  AC50 cell viability: 0.0661 µM
HCT116 [2]
  efficacy: -58.9%

## COc1cc([C@@H]2c3cc4c(cc3[C@@H](O)C3COC(=O)C32)OCO4)cc(OC)c1O (some centres not stated) [DMEP]
HCT116 [1]
  AC50 cell viability: 0.235 µM
HCT116 [2]
  efficacy: -52.3%

## CCc1cc(-c2n[nH]c(C)c2-c2ccc3c(c2)OCCO3)c(O)cc1O
HCT116 [1]
  AC50 cell viability: 7.42 µM
HCT116 [2]
  efficacy: -87%

## CC(=O)[C@]1(N)Cc2c(O)c3c(c(O)c2[C@@H](O[C@H]2C[C@H](O)[C@H](O)CO2)C1)C(=O)c1ccccc1C3=O [Amrubicin]
HCT116 [1]
  AC50 cell viability: 6.61 µM
HCT116 [2]
  efficacy: -75.8%

## C=C1C[C@@H]2CC[C@@]34C[C@H]5O[C@H]6[C@@H](O3)[C@H]3O[C@H](CC[C@@H]3O[C@H]6[C@H]5O4)CC(=O)C[C@@H]3[C@@H](OC)[C@@H](C[C@H](O)CN)O[C@H]3C[C@H]3O[C@@H](CC[C@@H]1O2)C[C@@H](C)C3=C [Eribulin mesylate]
HCT116 [1]
  AC50 cell viability: 0.00241 µM
HCT116 [2]
  efficacy: -56.4%

## Cc1ccc2nc(NCCN)c3ncc(C)n3c2c1
HCT116 [1]
  AC50 cell viability: 2.35 µM
HCT116 [2]
  efficacy: -78.2%

## Cc1cc(C(=O)Nc2cc(Nc3ccc4c(/C=C/c5ccccn5)[nH]nc4c3)ccc2F)n(C)n1
HCT116 [1]
  AC50 cell viability: 10.5 µM
HCT116 [2]
  efficacy: -99.1%

## CO[C@H]1/C=C/O[C@@]2(C)Oc3c(C)c(O)c4c(c3C2=O)C2=NC3(CCN(CC(C)C)CC3)NC2=C(NC(=O)/C(C)=C/C=C/[C@H](C)[C@H](O)[C@@H](C)[C@@H](O)[C@@H](C)[C@H](OC(C)=O)[C@@H]1C)C4=O [Rifabutin]
HCT116 [1]
  AC50 cell viability: 23.5 µM
HCT116 [2]
  efficacy: -60%

## CC(C)c1cnn2c(NCc3ccccc3)cc(N[C@@H](CO)[C@H](O)CO)nc12 [BS-194]
HCT116 [1]
  AC50 cell viability: 0.0833 µM
HCT116 [2]
  efficacy: -59.1%

## N[S+]([O-])(=O)C1=CC=C(NC/2=C/C(=O)C3=CC=CC=C3C2=O)C=C1
HCT116 [1]
  AC50 cell viability: 10.5 µM
HCT116 [2]
  efficacy: -81.9%

## OC1CCC(CC1)N2\C=N/C3=C(C2=N)C(=C([N]3CC4=CC=CC=C4)C5=CC=CC=C5)C6=CC=CC=C6 (configuration not stated)
HCT116 [1]
  AC50 cell viability: 2.95 µM
HCT116 [2]
  efficacy: -107%

## CC(=O)Nc1nc(C)c(-c2ccc(Cl)c([S+](=O)([O-])NCCO)c2)s1 [PIK-93]
HCT116 [1]
  AC50 cell viability: 8.33 µM
HCT116 [2]
  efficacy: -85.9%

## O=C1c2cccc(O)c2C(=O)c2c(O)cc(CO)cc21 [Aloe-emodin]
HCT116 [1]
  AC50 cell viability: 11.8 µM
HCT116 [2]
  efficacy: -47.2%

## COc1ccc([S+](=O)([O-])Nc2cccnc2Nc2ccc(O)cc2)cc1 [E-7010]
HCT116 [1]
  AC50 cell viability: 0.59 µM
HCT116 [2]
  efficacy: -63.2%

## C/C=C/C/C=C/CCC(=O)[C@H]1O[C@H]1C(N)=O [Cerulenin]
HCT116 [1]
  AC50 cell viability: 16.6 µM
HCT116 [2]
  efficacy: -80.2%

## O=C(/C=C/C#Cc1cccc(N[S+](=O)([O-])c2ccccc2)c1)NO [Oxamflatin]
HCT116 [1]
  AC50 cell viability: 1.02 µM
HCT116 [2]
  efficacy: -99.5%

## C/C(=C\c1csc(C)n1)[C@@H]1C[C@@H]2O[C@]2(C)CCC[C@H](C)[C@H](O)[C@@H](C)C(=O)C(C)(C)[C@@H](O)CC(=O)O1 [Epothilone B]
HCT116 [1]
  AC50 cell viability: 0.00662 µM
HCT116 [2]
  efficacy: -49.2%
